{"source": "patent US20250129385A1", "about": "“GENE-EDITING METHODS FOR EMBRYONIC STEM CELLS” (ABS Global, Inc., priority 2022, published 2025)", "type_in_all_cases": "cell-based", "key": {"ROSA safe harbor locus": {"tested_on": "ROSA safe harbor locus", "assay": "CRISPR-Cas9 RNP gene editing of bovine ESC, indels by Sanger sequencing/TIDE, ROSA locus", "conditions": "gbESC_H2682 cells; RNP 20 pmol SpCas9 + 60 pmol sgRNA, program CM138; DNA after four days; TIDE", "method": "(§1) Test edits were performed in the ROSA and CD18 loci. CRISPR guides targeting the CD18 (ITGB2) gene at chr1:144,776,517, or the ROSA safe harbor locus region chr22:17,210,883-17,210,982, (genome assembly ARS-UCD1.2/bosTau9) were designed and synthesized as sgRNA molecules (IDT, Coralville IA) as shown in Table 2.\n(§2) Ribonucleoprotein complexes formed from 20 pmol SpCas9 (IDT, Coralville IA) and 60 pmol sgRNA were electroporated into gbESC_H2682 cells using P3 nucleofection solution and the Amaxa 4D program CM138. After four days DNA from the cells was harvested using QUICKEXTRACT™ reagent (Lucigen, Middleton WI), and PCR was performed using the primers in Table 3."}, "seventh exon of CD163": {"tested_on": "seventh exon of CD163", "assay": "CRISPR-CAS9 editing of porcine ESC, single-cell clones screened by PCR genotyping", "conditions": "two guides together, C9 line; RNP 20 pmol SpCas9 + 60 pmol sgRNA, pulse DS137; colonies screened at day 21", "description": "As proof of concept, the present inventors sought to create the CD163 edit disclosed in U.S. Pat. No. 11,535,850. Two guides, ctggcttact cctatcatga agg (SEQ ID NO: 103) and tcccatgcca tgaagagggt agg (SEQ ID NO: 104) were used to excise the seventh exon of CD163. These guides were electroporated into the C9 line by mixing cells in P3 nucleofection solution with ribonucleoprotein (20 pmol SpCas9 complexed with 60 pmol of the guide sgRNA) and using the pulse condition DS137 in a 4D-Nucleofector system (Lonza, Walkersville MD). Between day 7 and 12 post-electroporation, single cells were deposited one per well into a 96 well plate (coated with laminin 521 and containing TI media with Y27632) using a Hana Single Cell Dispenser instrument (Namocell, San Jose CA). Cells were allowed to grow until day 21, and then colonies were screened by PCR genotyping (see 11,535,850)."}, "[1]": {"tested_on": "Porcine stem cell line C2", "assay": "Single passage cell growth in media #2 with additives (CELLTITER-GLO 2.0)", "conditions": "simple defined media #2 plus additive, day five; for Cell Growth (% of simple media): line C2 passaged 1:80, laminin 521, changed daily", "method": "A revised simple defined media #2 (Table 6, with lower ascorbic acid and FGF2) was used to determine any immediate benefit of certain additives over the timeframe of one passage.\nPorcine stem cell line C2 (see Example 2) growing in the standard TI media conditions was passaged at a 1:80 ratio into a laminin 521 coated 24 well plate containing simple defined media #2 alone or with the addition of 1% bovine serum albumin, 1% Albumax, 1 mg/mL polyvinyl acetate, 1:500 chemically defined lipids (Gibco), 1:500 lipid mixture solution (Peprotech), 1:1000 Trace Elements B or C (Corning), sodium bicarbonate, and double the amount of ITS (insulin/transferrin/selenium). Cells were incubated at 38.5° C./5% 02 and media and additives were changed daily. On day five cell growth was measured using the CELLTITER-GLO® 2.0 kit (Promega, Madison WI)."}, "CD18 (ITGB2) gene": {"tested_on": "CD18 (ITGB2) gene", "assay": "CRISPR-Cas9 RNP gene editing of bovine ESC, indels by Sanger sequencing/TIDE, CD18 locus", "conditions": "gbESC_H2682 cells; RNP 20 pmol SpCas9 + 60 pmol sgRNA, program CM138; DNA after four days; TIDE", "method": "as §1, §2"}}, "data": [{"compound": "750: sgRNA, guide sequence AGGCGATGACGAGATCGCGG, targeting bovine ROSA safe harbor locus (listed as DNA, chemistry not given here; listed as Bos taurus) [compound 750]", "values": [{"measurement": "Efficiency (%) (editing frequency)", "setting": "ROSA safe harbor locus", "value": 58.2, "unit": "%"}]}, {"compound": "SEQ ID NO: 104: guide tcccatgcca tgaagagggt agg used to excise the seventh exon of CD163 (guide TCCCATGCCATGAAGAGGGTAGG; listed as DNA, chemistry not given here; listed as Sus scrofa)", "values": [{"measurement": "clones homozygous for the CD163 edit", "setting": "seventh exon of CD163", "value": "Two clones that were homozygous for the edit were found"}]}, {"compound": "+ 1% BSA (Gibco A10008-01): 1% bovine serum albumin added to simple defined media #2", "values": [{"measurement": "effect on cell growth in words", "setting": "[1]; line C2", "value": "beneficial to cell growth"}, {"measurement": "Cell Growth (% of simple media)", "setting": "[1]", "value": 187, "unit": "%"}]}, {"compound": "748: sgRNA, guide sequence TGTCGAGTCTCGATTATGGG, targeting bovine ROSA safe harbor locus (listed as DNA, chemistry not given here; listed as Bos taurus) [compound 748]", "values": [{"measurement": "Efficiency (%) (editing frequency)", "setting": "ROSA safe harbor locus", "value": 74.3, "unit": "%"}]}, {"compound": "O=C([O-])O.[Na+]", "note": "[Sodium bicarbonate]", "values": [{"measurement": "Cell Growth (% of simple media)", "setting": "[1]", "value": 75, "unit": "%"}]}, {"compound": "754: sgRNA, guide sequence CCCCGTGGGACTCACCGGAC, targeting bovine CD18 (ITGB2) gene (listed as DNA, chemistry not given here; listed as Bos taurus) [compound 754]", "values": [{"measurement": "Efficiency (%) (editing frequency)", "setting": "CD18 (ITGB2) gene", "value": 34.9, "unit": "%"}]}, {"compound": "749: sgRNA, guide sequence ATAATCGAGACTCGACATGG, targeting bovine ROSA safe harbor locus (listed as DNA, chemistry not given here; listed as Bos taurus) [compound 749]", "values": [{"measurement": "Efficiency (%) (editing frequency)", "setting": "ROSA safe harbor locus", "value": 66.5, "unit": "%"}]}, {"compound": "SEQ ID NO: 103: guide ctggcttact cctatcatga agg used to excise the seventh exon of CD163 (guide CTGGCTTACTCCTATCATGAAGG; listed as DNA, chemistry not given here; listed as Sus scrofa)", "values": [{"measurement": "clones homozygous for the CD163 edit", "setting": "seventh exon of CD163", "value": "Two clones that were homozygous for the edit were found"}]}]}
